# Results: paper PMC6691788, “Design and synthesis of phthalazine-based compounds as potent anticancer agents with potential antiangiogenic activity via VEGFR-2 inhibition” (Journal of Enzyme Inhibition and Medicinal Chemistry, 2019)
# Tests used:
# Test in all cases: NCI 60 cell panel SRB screen
# CCRF-CEM = assay type: cell-based, human; settings: for activity at 10 µM: single dose 10 μM, read-out: percent cell growth promotion
# SW-620 = assay type: cell-based; settings: Homo sapiens; for activity at 10 µM: SW-620, single dose 10 μM, read-out: percent cell growth promotion
# RPMI-8226 = assay type: cell-based; settings: Homo sapiens; for activity at 10 µM: RPMI-8226, single dose 10 μM, read-out: percent cell growth promotion
# OVCAR-5 = assay type: cell-based; settings: Homo sapiens; for activity at 10 µM: OVCAR-5, single dose 10 μM, read-out: percent cell growth promotion
# SNB-19 = assay type: cell-based; settings: Homo sapiens; for activity at 10 µM: SNB-19, single dose 10 μM, read-out: percent cell growth promotion
# HCC-2998 = assay type: cell-based; settings: Homo sapiens; for activity at 10 µM: HCC-2998, single dose 10 μM, read-out: percent cell growth promotion
# NCI-H226 = assay type: cell-based; settings: Homo sapiens; for activity at 10 µM: NCI-H226, single dose 10 μM, read-out: percent cell growth promotion
# HOP-92 = assay type: cell-based; settings: Homo sapiens; for activity at 10 µM: HOP-92, single dose 10 μM, read-out: percent cell growth promotion
# M14 = assay type: cell-based; settings: Homo sapiens; for activity at 10 µM: M14, read-out: percent cell growth promotion
# A549/ATCC = assay type: cell-based; settings: Homo sapiens; for activity at 10 µM: single dose 10 μM, read-out: percent cell growth promotion
# OVCAR-8 = assay type: cell-based; settings: Homo sapiens; for activity at 10 µM: OVCAR-8, single dose 10 μM, read-out: percent cell growth promotion
# SK-MEL-5 = assay type: cell-based; settings: Homo sapiens; for activity at 10 µM: SK-MEL-5, read-out: percent cell growth promotion
# SN12C = assay type: cell-based; settings: Homo sapiens; for activity at 10 µM: single dose 10 μM, read-out: percent cell growth promotion
# U251 = assay type: cell-based; settings: Homo sapiens, U-251; for activity at 10 µM: U251, single dose 10 μM, read-out: percent cell growth promotion
# HCT-116 = assay type: cell-based; settings: Homo sapiens; for activity at 10 µM: HCT-116, single dose 10 μM, read-out: percent cell growth promotion
# SK-MEL-28 = assay type: cell-based; settings: Homo sapiens; for activity at 10 µM: SK-MEL-28, read-out: percent cell growth promotion
# NCI/ADR-RES = assay type: cell-based; settings: Homo sapiens; for activity at 10 µM: single dose 10 μM, read-out: percent cell growth promotion
# SR = assay type: cell-based; settings: Homo sapiens; for activity at 10 µM: single dose 10 μM, read-out: percent cell growth promotion
# NCI-H23 = assay type: cell-based; settings: Homo sapiens; for activity at 10 µM: NCI-H23, single dose 10 μM, read-out: percent cell growth promotion
# ACHN = assay type: cell-based; settings: Homo sapiens; for activity at 10 µM: single dose 10 μM, read-out: percent cell growth promotion
# RXF 393 = assay type: cell-based; settings: Homo sapiens; for activity at 10 µM: RXF 393, single dose 10 μM, read-out: percent cell growth promotion
# KM12 = assay type: cell-based; settings: Homo sapiens; for activity at 10 µM: KM12, single dose 10 μM, read-out: percent cell growth promotion
# TK-10 = assay type: cell-based, human; settings: for activity at 10 µM: TK-10, single dose 10 μM, read-out: percent cell growth promotion
# MALME-3M = assay type: cell-based; settings: Homo sapiens; for activity at 10 µM: read-out: percent cell growth promotion
# SNB-75 = assay type: cell-based; settings: Homo sapiens; for activity at 10 µM: SNB-75, single dose 10 μM, read-out: percent cell growth promotion
# SK-OV-3 = assay type: cell-based; settings: Homo sapiens; for activity at 10 µM: SK-OV-3, single dose 10 μM, read-out: percent cell growth promotion
# NCI-H460 = assay type: cell-based; settings: Homo sapiens; for activity at 10 µM: NCI-H460, single dose 10 μM, read-out: percent cell growth promotion
# [1] = 5 log dose, 48 h, read-out: LC50 (the source's name)
compound,measurement,setting,value
"Cc1nnc(N2CCN(c3ccccc3)CC2)c2ccccc12 [Compound 8g, 1-Methyl-4–(4-phenylpiperazin-1-yl)phthalazine]",activity at 10 µM,CCRF-CEM; Homo sapiens,103%
same,activity at 10 µM,SW-620,107%
same,activity at 10 µM,RPMI-8226,104%
same,activity at 10 µM,OVCAR-5,98.2%
same,activity at 10 µM,SNB-19,105%
same,activity at 10 µM,HCC-2998,109%
same,activity at 10 µM,NCI-H226,95.2%
same,activity at 10 µM,HOP-92,95.9%
same,activity at 10 µM,M14,94.8%
same,activity at 10 µM,A549/ATCC,99.3%
same,activity at 10 µM,OVCAR-8,97.1%
same,activity at 10 µM,SK-MEL-5,98.1%
same,activity at 10 µM,SN12C,100%
same,activity at 10 µM,U251,96.7%
same,activity at 10 µM,HCT-116,113%
same,activity at 10 µM,SK-MEL-28,109%
same,activity at 10 µM,NCI/ADR-RES,107%
same,activity at 10 µM,SR,107%
same,activity at 10 µM,NCI-H23,103%
same,activity at 10 µM,ACHN,100%
same,activity at 10 µM,RXF 393,105%
same,activity at 10 µM,KM12,109%
same,activity at 10 µM,TK-10; Homo sapiens,97.2%
same,activity at 10 µM,MALME-3M; Malme-3M,114%
same,activity at 10 µM,SNB-75,98.1%
same,activity at 10 µM,SK-OV-3,96.5%
same,activity at 10 µM,NCI-H460,105%
"O=C(Nc1ccccc1)Nc1ccc(Oc2nnc(Cl)c3ccccc23)cc1 [Compound 13a, 1–(4-(4-Chlorophthalazin-1-yloxy)phenyl)-3-phenylurea]",TGI,CCRF-CEM; 5 log dose,> 25 µM
same,GI50,"CCRF-CEM; Homo sapiens, 5 log dose",4.44 µM
same,CC50,"CCRF-CEM; Homo sapiens, 5 log dose, 48 h, read-out: LC50 (the source's name)",> 25 µM
same,activity at 10 µM,CCRF-CEM; Homo sapiens,47.6%
same,GI50,"SW-620; SW-620, 5 log dose",8.41 µM
same,IC (TGI),"SW-620; SW-620, 5 log dose",> 25 µM
same,CC50,"SW-620; SW-620, 5 log dose, 48 h, read-out: LC50 (the source's name)",> 25 µM
same,activity at 10 µM,SW-620,73.4%
same,GI50,"RPMI-8226; RPMI-8226, 5 log dose",4.45 µM
same,IC (TGI),"RPMI-8226; RPMI-8226, 5 log dose",24.3 µM
same,CC50,"RPMI-8226; RPMI-8226, 5 log dose, 48 h, read-out: LC50 (the source's name)",> 25 µM
same,activity at 10 µM,RPMI-8226,35.1%
same,GI50,"OVCAR-5; OVCAR-5, 5 log dose",5.61 µM
same,IC (TGI),"OVCAR-5; OVCAR-5, 5 log dose",15.3 µM
same,CC50,"OVCAR-5; OVCAR-5, 5 log dose, 48 h, read-out: LC50 (the source's name)",> 25 µM
same,activity at 10 µM,OVCAR-5,86.3%
same,GI50,"SNB-19; SNB-19, 5 log dose",1.67 µM
same,IC (TGI),"SNB-19; SNB-19, 5 log dose",8.46 µM
same,CC50,"SNB-19; SNB-19, 5 log dose, 48 h, read-out: LC50 (the source's name)",> 25 µM
same,activity at 10 µM,SNB-19,9.64%
same,GI50,"HCC-2998; HCC-2998, 5 log dose",4.2 µM
same,IC (TGI),"HCC-2998; HCC-2998, 5 log dose",12.2 µM
same,LC50 (50% lethal concentration),"HCC-2998; HCC-2998, 5 log dose, 48 h",> 25 µM
same,activity at 10 µM,HCC-2998,52.9%
same,GI50,"NCI-H226; NCI-H226, 5 log dose",1.95 µM
same,IC (TGI),"NCI-H226; NCI-H226, 5 log dose",9.25 µM
same,CC50,"NCI-H226; NCI-H226, 5 log dose, 48 h, read-out: LC50 (the source's name)",> 25 µM
same,activity at 10 µM,NCI-H226,8.66%
same,GI50,"HOP-92; HOP-92, 5 log dose",3.09 µM
same,IC (TGI),"HOP-92; HOP-92, 5 log dose",11.3 µM
same,CC50,"HOP-92; HOP-92, 5 log dose, 48 h, read-out: LC50 (the source's name)",> 25 µM
same,activity at 10 µM,HOP-92,-7.51%
same,GI50,M14; M14,6.15 µM
same,IC (TGI),"M14; M14, read-out: TGI",> 25 µM
same,activity at 10 µM,M14,46.2%
same,CC50,"M14; M14, 5 log dose, 48 h, read-out: LC50 (the source's name)",> 25 µM
same,GI50,A549/ATCC; 5 log dose,3.47 µM
same,IC (TGI),A549/ATCC; 5 log dose,18.4 µM
same,LC50 (concentration killing 50% of cells),"A549/ATCC; 5 log dose, 48 h",> 25 µM
same,activity at 10 µM,A549/ATCC,11.2%
same,GI50,"OVCAR-8; OVCAR-8, 5 log dose",2.6 µM
same,IC (TGI),"OVCAR-8; OVCAR-8, 5 log dose",6.53 µM
same,CC50,"OVCAR-8; OVCAR-8, 5 log dose, 48 h, read-out: LC50 (the source's name)",16.4 µM
same,activity at 10 µM,OVCAR-8,15.5%
same,GI50,SK-MEL-5; SK-MEL-5,4.56 µM
same,IC (TGI),"SK-MEL-5; SK-MEL-5, read-out: TGI",18.6 µM
same,activity at 10 µM,SK-MEL-5,32.9%
same,CC50,"SK-MEL-5; SK-MEL-5, 5 log dose, 48 h, read-out: LC50 (the source's name)",> 25 µM
same,GI50,SN12C; 5 log dose,6.72 µM
same,IC (TGI),SN12C; 5 log dose,> 25 µM
same,CC50,SN12C; [1],> 25 µM
same,activity at 10 µM,SN12C,53.7%
same,GI50,"U251; U251, 5 log dose",2.14 µM
same,IC (TGI),"U251; U251, 5 log dose",5.2 µM
same,CC50,"U251; U251, 5 log dose, 48 h, read-out: LC50 (the source's name)",11.4 µM
same,activity at 10 µM,U251,4.84%
same,GI50,"HCT-116; HCT-116, 5 log dose",3.06 µM
same,IC (TGI),"HCT-116; HCT-116, 5 log dose",9.77 µM
same,LC50 (lethal concentration 50%),"HCT-116; HCT-116, 5 log dose, 48 h",> 25 µM
same,activity at 10 µM,HCT-116,10.6%
same,GI50,SK-MEL-28; SK-MEL-28,3.57 µM
same,IC (TGI),"SK-MEL-28; SK-MEL-28, read-out: TGI",12.7 µM
same,activity at 10 µM,SK-MEL-28,44.2%
same,CC50,"SK-MEL-28; SK-MEL-28, 5 log dose, 48 h, read-out: LC50 (the source's name)",> 25 µM
same,GI50,NCI/ADR-RES; 5 log dose,2.63 µM
same,IC (TGI),NCI/ADR-RES; 5 log dose,6.39 µM
same,CC50,NCI/ADR-RES; [1],15.5 µM
same,activity at 10 µM,NCI/ADR-RES,16.9%
same,GI50,SR; 5 log dose,1.93 µM
same,IC (TGI),SR; 5 log dose,8.26 µM
same,CC50,SR; [1],> 25 µM
same,activity at 10 µM,SR,18%
same,GI50,"NCI-H23; NCI-H23, 5 log dose",3.72 µM
same,IC (TGI),"NCI-H23; NCI-H23, 5 log dose",9.44 µM
same,CC50,"NCI-H23; NCI-H23, 5 log dose, 48 h, read-out: LC50 (the source's name)",24 µM
same,activity at 10 µM,NCI-H23,32.7%
same,GI50,ACHN; 5 log dose,3.47 µM
same,IC (TGI),ACHN; 5 log dose,18.7 µM
same,CC50,ACHN; [1],> 25 µM
same,activity at 10 µM,ACHN,33.9%
same,GI50,"RXF 393; RXF 393, 5 log dose",2.69 µM
same,IC (TGI),"RXF 393; RXF 393, 5 log dose",6.24 µM
same,CC50,"RXF 393; RXF 393, 5 log dose, 48 h, read-out: LC50 (the source's name)",14.5 µM
same,activity at 10 µM,RXF 393,-3.63%
same,GI50,"KM12; KM12, 5 log dose",5.51 µM
same,IC (TGI),"KM12; KM12, 5 log dose",> 25 µM
same,CC50,"KM12; KM12, 5 log dose, 48 h, read-out: LC50 (the source's name)",> 25 µM
same,activity at 10 µM,KM12,43.6%
same,GI50,"TK-10; Homo sapiens, TK-10, 5 log dose",6.08 µM
same,CC50,"TK-10; Homo sapiens, TK-10, 5 log dose, 48 h, read-out: LC50 (the source's name)",> 25 µM
same,activity at 10 µM,TK-10; Homo sapiens,25.3%
same,TGI,"TK-10; TK-10, 5 log dose",14.9 µM
same,GI50,MALME-3M; Malme-3M,1.62 µM
same,IC (TGI),"MALME-3M; Malme-3M, read-out: TGI",5.93 µM
same,activity at 10 µM,MALME-3M; Malme-3M,-29.6%
same,CC50,"MALME-3M; MALME-3M, 5 log dose, 48 h, read-out: LC50 (the source's name)",16 µM
same,GI50,"SNB-75; SNB-75, 5 log dose",1.08 µM
same,IC (TGI),"SNB-75; SNB-75, 5 log dose",5.9 µM
same,LC50 (concentration killing 50% of cells),"SNB-75; SNB-75, 5 log dose, 48 h",21.3 µM
same,activity at 10 µM,SNB-75,-42%
same,GI50,"SK-OV-3; SK-OV-3, 5 log dose",1.46 µM
same,IC (TGI),"SK-OV-3; SK-OV-3, 5 log dose",5.51 µM
same,CC50,"SK-OV-3; SK-OV-3, 5 log dose, 48 h, read-out: LC50 (the source's name)",16.6 µM
same,activity at 10 µM,SK-OV-3,-0.5%
same,GI50,"NCI-H460; NCI-H460, 5 log dose",2.67 µM
same,IC (TGI),"NCI-H460; NCI-H460, 5 log dose",8.65 µM
same,LC50 (concentration causing 50% cell kill),"NCI-H460; NCI-H460, 5 log dose, 48 h",> 25 µM
same,activity at 10 µM,NCI-H460,25.2%
